The values that follow come from patent US6316410A, “Parathyroid hormone analogues for the treatment of osteoporosis” (National Research Council of Canada, priority 1999, dated 2001).

“Also recorded” adds a separate entry of the source. Like-named read-outs stand apart in the source and are kept apart here. Positions of bridges follow the written chain, without caps; N, C: chain ends. No end group written: not given here.

Assay [1] deals with adenylyl cyclase of ROS 17/2 cells. The assay is classed as cell-based, rat. An excerpt: Adenylyl cyclase activities of 4- to 5-day cultures of ROS 17/2 cells in 24-well plates were estimated from the rate of formation of [^3 H]-cAMF from the cellular ATP pool, which had been labelled with [^3 H]-adenine before exposure to hPTH or its analogues in accordance with Jouishomme, H. Whitfield, J. F.; Gagnon, L.; Maclean, S.; Isaacs, R.; Chakravarthy, B.; Durkin, J.; Neugebauer, W.; Willick, G.; Rixon, R. H. Further Definition of the Protein Kinase C Activation Domain of the Parathyroid Hormone. J. Bone Miner. Res. 1994, 9, 943-949.

In the next assay the test system is ovariectomized rat model. As to conditions: ovariectomized rats, literature; cited from earlier work.
For assay [2], the system named is ovariectomized (OVX) rats. Briefly: Growth of trabeculae in the distal femurs of ovariectomized (OVX) rats, injections week 9 to 15 after OVX. Format: in vivo. As to conditions: 5 nmoles/100 g of body weight s.c. daily, FIG. 8, in words. The source says: Rats were OVXed (OVX) or sham-OVXed (sham) and given daily subcutaneous injections of vehicle between the end of the 9th week and the end of the 15th week after OVX. Injection quantities were 5 nmoles/100 g of body weight. OVXed rats received daily subcutaneous injections of: vehicle (OVX), hPTH(1-31)NH2, 5 nmol (linear), [Leu^27 ]cyclo(Glu^22 -Lys^26)hPTH(1-28)NH2, 5 nmol (cyclic), or [Glu^17,Leu^27]cyclo(Lys^13 -Glu^17,Glu^22 Lys^26)hPTH(1-31)NH2, 5nmol(double cyclic). The femurs were demineralized and stained with Sanderson's rapid bone stain. […] This improvement is not correlated with their relative AC-stimulating activities, but likely results from greater stability to proteolytic attack and greater ability to be transported from the site of injection.

Where [3] appears, read: ROS 17/2 cells, concentration required to obtain half-maximal activity.

In the case of “SVSEIQLMHNLGKHLNSMERVEWLRKKL-NH2 [hPTH(1-28)NH2, reference compound]”, the “AC-Stimulation (ED50%, nM)” value in assay [1] turned out to be 24 nM. As for “SVSEIQLMHNLGKHLNSMERVEWLRKKLQ-NH2 [hPTH(1-29)NH2, reference compound]”, in assay [1], the “AC-Stimulation (ED50%, nM)” value is 24 nM. On to “Ser Val Ser Glu Ile Gln Leu Met His Asn Leu Gly Lys His Leu Asn Ser Met Glu Arg Val Glu Trp Leu Arg Lys Lys Leu Gin Asp Val-NH2 (SVSEIQLMHNLGKHLNSMERVEWLRKKLQDV-NH2) [hPTH-(1-31)-NH2, linear human parathyroid hormone fragment 1-31 amide]”, for which the “anabolic activity / restoration of bone loss” value with ovariectomized rat model is given as “fully active in the restoration of bone loss”. Consider “[Glu^17, Leu^27 ]cyclo(Lys^13 -Glu^17, Glu^22 -Lys^26)-hPTH-(1-31)-NH2 (SVSEIQLMHNLGKHLNEMERVEWLRKLLQDV-NH2; lactam 13-17, 22-26; N-terminus assumed; SMILES CC[C@H](C)[C@H](NC(=O)[C@H](CCC(=O)O)NC(=O)[C@H](CO)NC(=O)[C@@H](NC(=O)[C@@H](N)CO)C(C)C)C(=O)N[C@@H](CCC(N)=O)C(=O)N[C@@H](CC(C)C)C(=O)N[C@@H](CCSC)C(=O)N[C@@H](Cc1c[nH]cn1)C(=O)N[C@@H](CC(N)=O)C(=O)N[C@@H](CC(C)C)C(=O)NCC(=O)N[C@H]1CCCCNC(=O)CC[C@@H](C(=O)N[C@@H](CCSC)C(=O)N[C@@H](CCC(=O)O)C(=O)N[C@@H](CCCNC(=N)N)C(=O)N[C@H](C(=O)N[C@H]2CCC(=O)NCCCC[C@@H](C(=O)N[C@@H](CC(C)C)C(=O)N[C@@H](CC(C)C)C(=O)N[C@@H](CCC(N)=O)C(=O)N[C@@H](CC(=O)O)C(=O)N[C@H](C(N)=O)C(C)C)NC(=O)[C@H](CCCNC(=N)N)NC(=O)[C@H](CC(C)C)NC(=O)[C@H](Cc3c[nH]c4ccccc34)NC2=O)C(C)C)NC(=O)[C@H](CC(N)=O)NC(=O)[C@H](CC(C)C)NC(=O)[C@H](Cc2c[nH]cn2)NC1=O) [double cyclic (13-17 and 22-26 lactams) hPTH 1-31 amide analogue]”, for which, in assay [1] (setting [3]), the “AC-Stimulation (ED50%, nM)” value is recorded as 13.2 nM. Also, the “increasing the thickness of the remaining trabeculae” value in assay [2] is given as “better than its monocyclic counterpart; also recorded: significantly better than the linear molecule”.

For “[Leu^27 ]cyclo(Glu^22 -Lys^26)-hPTH-(1-28)-NH2 (SVSEIQLMHNLGKHLNSMERVEWLRKLL-NH2; lactam 22-26; N-terminus assumed; SMILES CC[C@H](C)[C@H](NC(=O)[C@H](CCC(=O)O)NC(=O)[C@H](CO)NC(=O)[C@@H](NC(=O)[C@@H](N)CO)C(C)C)C(=O)N[C@@H](CCC(N)=O)C(=O)N[C@@H](CC(C)C)C(=O)N[C@@H](CCSC)C(=O)N[C@@H](Cc1c[nH]cn1)C(=O)N[C@@H](CC(N)=O)C(=O)N[C@@H](CC(C)C)C(=O)NCC(=O)N[C@@H](CCCCN)C(=O)N[C@@H](Cc1c[nH]cn1)C(=O)N[C@@H](CC(C)C)C(=O)N[C@@H](CC(N)=O)C(=O)N[C@@H](CO)C(=O)N[C@@H](CCSC)C(=O)N[C@@H](CCC(=O)O)C(=O)N[C@@H](CCCNC(=N)N)C(=O)N[C@H](C(=O)N[C@H]1CCC(=O)NCCCC[C@@H](C(=O)N[C@@H](CC(C)C)C(=O)N[C@@H](CC(C)C)C(N)=O)NC(=O)[C@H](CCCNC(=N)N)NC(=O)[C@H](CC(C)C)NC(=O)[C@H](Cc2c[nH]c3ccccc23)NC1=O)C(C)C) [[Leu^27]c(Glu^22 -Lys^26)hPTH(1-28)NH2, 22-26 lactam cyclic analogue of human parathyroid hormone 1-28 amide with Leu27]”, the “AC-Stimulation (ED50%, nM)” value in assay [1] (setting [3]) amounted to 9.6 nM. Take “[Leu^27 ]cyclo(Glu^22 -Lys^26)-hPTH-(1-29)-NH2 (SVSEIQLMHNLGKHLNSMERVEWLRKLLQ-NH2; lactam 22-26; N-terminus assumed; SMILES CC[C@H](C)[C@H](NC(=O)[C@H](CCC(=O)O)NC(=O)[C@H](CO)NC(=O)[C@@H](NC(=O)[C@@H](N)CO)C(C)C)C(=O)N[C@@H](CCC(N)=O)C(=O)N[C@@H](CC(C)C)C(=O)N[C@@H](CCSC)C(=O)N[C@@H](Cc1c[nH]cn1)C(=O)N[C@@H](CC(N)=O)C(=O)N[C@@H](CC(C)C)C(=O)NCC(=O)N[C@@H](CCCCN)C(=O)N[C@@H](Cc1c[nH]cn1)C(=O)N[C@@H](CC(C)C)C(=O)N[C@@H](CC(N)=O)C(=O)N[C@@H](CO)C(=O)N[C@@H](CCSC)C(=O)N[C@@H](CCC(=O)O)C(=O)N[C@@H](CCCNC(=N)N)C(=O)N[C@H](C(=O)N[C@H]1CCC(=O)NCCCC[C@@H](C(=O)N[C@@H](CC(C)C)C(=O)N[C@@H](CC(C)C)C(=O)N[C@@H](CCC(N)=O)C(N)=O)NC(=O)[C@H](CCCNC(=N)N)NC(=O)[C@H](CC(C)C)NC(=O)[C@H](Cc2c[nH]c3ccccc23)NC1=O)C(C)C) [[Leu^27]c(Glu^22 -Lys^26)hPTH(1-29)NH2, 22-26 lactam cyclic analogue of human parathyroid hormone 1-29 amide with Leu27]”: in assay [1] (setting [3]), the “AC-Stimulation (ED50%, nM)” value is recorded as 8.4 nM. As for “hPTH(1-30)NH2 (SVSEIQLMHNLGKHLNSMERVEWLRKKLQD-NH2; UniProt P01270 32-61, looked up, fragment) [linear human parathyroid hormone fragment 1-30 amide]”, the “anabolic activity / restoration of bone loss” value with ovariectomized rat model was “only with much higher doses than used with the (1-31) analogue”.

B1: [Leu^27]cyclo(Glu^22-Lys^26)-hPTH-(1-29)-NH2 (peptide)
peptide: SVSEIQLMHNLGKHLNSMERVEWLRKLLQ-NH2
modifications: lactam 22-26; N-terminus assumed
SMILES: CC[C@H](C)[C@H](NC(=O)[C@H](CCC(=O)O)NC(=O)[C@H](CO)NC(=O)[C@@H](NC(=O)[C@@H](N)CO)C(C)C)C(=O)N[C@@H](CCC(N)=O)C(=O)N[C@@H](CC(C)C)C(=O)N[C@@H](CCSC)C(=O)N[C@@H](Cc1c[nH]cn1)C(=O)N[C@@H](CC(N)=O)C(=O)N[C@@H](CC(C)C)C(=O)NCC(=O)N[C@@H](CCCCN)C(=O)N[C@@H](Cc1c[nH]cn1)C(=O)N[C@@H](CC(C)C)C(=O)N[C@@H](CC(N)=O)C(=O)N[C@@H](CO)C(=O)N[C@@H](CCSC)C(=O)N[C@@H](CCC(=O)O)C(=O)N[C@@H](CCCNC(=N)N)C(=O)N[C@H](C(=O)N[C@H]1CCC(=O)NCCCC[C@@H](C(=O)N[C@@H](CC(C)C)C(=O)N[C@@H](CC(C)C)C(=O)N[C@@H](CCC(N)=O)C(N)=O)NC(=O)[C@H](CCCNC(=N)N)NC(=O)[C@H](CC(C)C)NC(=O)[C@H](Cc2c[nH]c3ccccc23)NC1=O)C(C)C
In the case of B1, the AC-Stimulation (ED50%, nM) in the assay with PTH receptor was 8.4 nM.

The molecule SVSEIQLMHNLGKHLNSMERVEWLRKKL-NH2 [hPTH(1-28)NH2] displayed an AC-Stimulation (ED50%, nM) with PTH receptor of 24 nM.

B2: [Leu^27]cyclo(Glu^22-Lys^26)-hPTH-(1-28)-NH2 (peptide)
peptide: SVSEIQLMHNLGKHLNSMERVEWLRKLL-NH2
modifications: lactam 22-26; N-terminus assumed
SMILES: CC[C@H](C)[C@H](NC(=O)[C@H](CCC(=O)O)NC(=O)[C@H](CO)NC(=O)[C@@H](NC(=O)[C@@H](N)CO)C(C)C)C(=O)N[C@@H](CCC(N)=O)C(=O)N[C@@H](CC(C)C)C(=O)N[C@@H](CCSC)C(=O)N[C@@H](Cc1c[nH]cn1)C(=O)N[C@@H](CC(N)=O)C(=O)N[C@@H](CC(C)C)C(=O)NCC(=O)N[C@@H](CCCCN)C(=O)N[C@@H](Cc1c[nH]cn1)C(=O)N[C@@H](CC(C)C)C(=O)N[C@@H](CC(N)=O)C(=O)N[C@@H](CO)C(=O)N[C@@H](CCSC)C(=O)N[C@@H](CCC(=O)O)C(=O)N[C@@H](CCCNC(=N)N)C(=O)N[C@H](C(=O)N[C@H]1CCC(=O)NCCCC[C@@H](C(=O)N[C@@H](CC(C)C)C(=O)N[C@@H](CC(C)C)C(N)=O)NC(=O)[C@H](CCCNC(=N)N)NC(=O)[C@H](CC(C)C)NC(=O)[C@H](Cc2c[nH]c3ccccc23)NC1=O)C(C)C
In the case of B2, the AC-Stimulation (ED50%, nM) with PTH receptor amounted to 9.6 nM. In the case of SVSEIQLMHNLGKHLNSMERVEWLRKKLQ-NH2 [hPTH(1-29)NH2], in the assay with PTH receptor, the AC-Stimulation (ED50%, nM) came to 24 nM.

B3: [Glu^17, Leu^27]cyclo(Lys^13-Glu^17, Glu^22-Lys^26)-hPTH-(1-31)-NH2 (peptide)
peptide: SVSEIQLMHNLGKHLNEMERVEWLRKLLQDV-NH2
modifications: lactam 13-17, 22-26; N-terminus assumed
SMILES: CC[C@H](C)[C@H](NC(=O)[C@H](CCC(=O)O)NC(=O)[C@H](CO)NC(=O)[C@@H](NC(=O)[C@@H](N)CO)C(C)C)C(=O)N[C@@H](CCC(N)=O)C(=O)N[C@@H](CC(C)C)C(=O)N[C@@H](CCSC)C(=O)N[C@@H](Cc1c[nH]cn1)C(=O)N[C@@H](CC(N)=O)C(=O)N[C@@H](CC(C)C)C(=O)NCC(=O)N[C@H]1CCCCNC(=O)CC[C@@H](C(=O)N[C@@H](CCSC)C(=O)N[C@@H](CCC(=O)O)C(=O)N[C@@H](CCCNC(=N)N)C(=O)N[C@H](C(=O)N[C@H]2CCC(=O)NCCCC[C@@H](C(=O)N[C@@H](CC(C)C)C(=O)N[C@@H](CC(C)C)C(=O)N[C@@H](CCC(N)=O)C(=O)N[C@@H](CC(=O)O)C(=O)N[C@H](C(N)=O)C(C)C)NC(=O)[C@H](CCCNC(=N)N)NC(=O)[C@H](CC(C)C)NC(=O)[C@H](Cc3c[nH]c4ccccc34)NC2=O)C(C)C)NC(=O)[C@H](CC(N)=O)NC(=O)[C@H](CC(C)C)NC(=O)[C@H](Cc2c[nH]cn2)NC1=O
B3: the AC-Stimulation (ED50%, nM) in the assay with PTH receptor amounted to 13.2 nM.
